According to ChEMBL document CHEMBL1142524, “Virtual screening to successfully identify novel janus kinase 3 inhibitors: a sequential focused screening approach” (J Med Chem, 2008):

Target: T1, Tyrosine-protein kinase JAK3 (Homo sapiens, UniProt P52333)
T1 sequence (P52333 whole entry): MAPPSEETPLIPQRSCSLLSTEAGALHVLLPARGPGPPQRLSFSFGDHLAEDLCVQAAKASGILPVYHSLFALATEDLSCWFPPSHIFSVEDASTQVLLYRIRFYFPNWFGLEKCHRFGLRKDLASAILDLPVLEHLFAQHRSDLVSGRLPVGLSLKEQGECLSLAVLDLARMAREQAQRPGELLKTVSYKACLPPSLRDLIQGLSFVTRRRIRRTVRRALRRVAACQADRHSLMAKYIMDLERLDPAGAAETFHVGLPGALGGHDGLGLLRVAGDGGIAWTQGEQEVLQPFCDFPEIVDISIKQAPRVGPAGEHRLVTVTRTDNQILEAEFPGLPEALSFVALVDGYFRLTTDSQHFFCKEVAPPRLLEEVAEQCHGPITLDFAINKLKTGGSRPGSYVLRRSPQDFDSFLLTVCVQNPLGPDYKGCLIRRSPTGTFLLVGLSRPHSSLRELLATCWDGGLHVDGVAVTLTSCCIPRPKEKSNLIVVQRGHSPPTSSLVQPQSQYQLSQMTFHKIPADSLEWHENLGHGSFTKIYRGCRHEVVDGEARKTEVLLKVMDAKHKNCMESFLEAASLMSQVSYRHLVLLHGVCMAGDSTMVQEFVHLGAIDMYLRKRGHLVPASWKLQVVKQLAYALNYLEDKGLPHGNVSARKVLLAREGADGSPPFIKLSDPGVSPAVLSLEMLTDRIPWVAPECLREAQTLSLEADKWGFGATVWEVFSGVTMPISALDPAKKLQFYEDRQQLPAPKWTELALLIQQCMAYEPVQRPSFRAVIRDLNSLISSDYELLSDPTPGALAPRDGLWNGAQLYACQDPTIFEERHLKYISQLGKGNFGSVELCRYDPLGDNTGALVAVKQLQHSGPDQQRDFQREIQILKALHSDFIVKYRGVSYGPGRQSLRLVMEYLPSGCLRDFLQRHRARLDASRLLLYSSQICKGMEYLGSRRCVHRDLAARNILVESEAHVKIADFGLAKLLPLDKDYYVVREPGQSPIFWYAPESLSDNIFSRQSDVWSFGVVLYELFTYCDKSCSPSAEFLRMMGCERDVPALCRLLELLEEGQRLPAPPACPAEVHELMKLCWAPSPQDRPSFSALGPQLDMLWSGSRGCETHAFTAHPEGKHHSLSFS
Experiment: Inhibition of JAK3

| Compound | IC50 [µM] |
| --- | --- |
| CN1CCN(c2ccc(Nc3ncc4[nH]nc(-c5ccccc5)c4n3)cc2)CC1 | 0.098 |
| Cc1cc(C(=O)Nc2ccc3[nH]ncc3c2)nn1-c1cccc(C(F)(F)F)c1 | 2.64 |
| Oc1c2ccccc2c2c3c(cccc13)N=N2 [SP-600125] | 0.957 |
